Results from ChEMBL document CHEMBL1201862, “PubChem BioAssay data set” (2004).
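Growth conditions: 96-well plates. Treatment: test compound, 48 hours, 5 concentrations. Analysis: linear interpolation between bracketing concentrations; unreached endpoints set to highest concentration. At the GI50, growth is halved.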 The source made the active and inactive calls. No stated cut-off is given here; in the data, active = GI50 up to about 1.1 µM and inactive = higher.

Assays:
Assay in all cases: DTP human tumour cell line panel, 48 h
SN12C = test system: SN12C
Malme-3M = test system: Malme-3M
HOP-92 = test system: HOP-92
RPMI-8226 = test system: RPMI-8226
A549 = test system: A549
TK-10 = test system: TK-10
SNB-75 = test system: SNB-75
M14 = test system: M14
SK-MEL-28 = test system: SK-MEL-28
KM12 = test system: KM12
COLO 205 = test system: COLO 205
OVCAR-3 = test system: OVCAR-3
K562 = test system: K562
ACHN = test system: ACHN
LXFL 529 = test system: LXFL 529
UO-31 = test system: UO-31
LOX IMVI = test system: LOX IMVI
T47D = test system: T47D
A498 = test system: A498
MDA-MB-231 = test system: MDA-MB-231

Measured: GI50

COc1cc(/C=C2\Cc3ccccc3C2=O)cc(OC)c1OC
inactive: SN12C > 100 µM | Malme-3M > 100 µM | HOP-92 77.3 µM | RPMI-8226 > 100 µM | A549 > 100 µM | TK-10 > 100 µM | SNB-75 51.5 µM | M14 > 100 µM | SK-MEL-28 > 100 µM | KM12 > 100 µM | COLO 205 > 100 µM | OVCAR-3 > 100 µM | K562 > 100 µM | ACHN > 100 µM | LXFL 529 > 100 µM | UO-31 > 100 µM | LOX IMVI > 100 µM

O=c1[nH]c2cc([N+](=O)[O-])ccc2nc1/C(=N\NO)C(O)c1ccc([N+](=O)[O-])cc1 (centres undefined)
inactive: SN12C 98.9 µM | Malme-3M > 100 µM | HOP-92 > 100 µM | RPMI-8226 > 100 µM | A549 > 100 µM | SNB-75 > 100 µM | M14 > 100 µM | SK-MEL-28 > 100 µM | KM12 65 µM | COLO 205 > 100 µM | OVCAR-3 > 100 µM | K562 > 100 µM | ACHN 52.5 µM | LXFL 529 > 100 µM | UO-31 > 100 µM | LOX IMVI 85.1 µM

C1=Cc2nc1c(-c1ccccc1)c1ccc([n-]1)c(-c1ccccc1)c1nc(c(-c3ccccc3)c3ccc([n-]3)c2-c2ccccc2)C=C1.[Zn+2]
inactive: SN12C > 100 µM | Malme-3M > 100 µM | HOP-92 > 100 µM | RPMI-8226 75.7 µM | A549 > 100 µM | TK-10 > 100 µM | SNB-75 67.5 µM | M14 > 100 µM | SK-MEL-28 > 100 µM | KM12 > 100 µM | COLO 205 > 100 µM | OVCAR-3 > 100 µM | K562 > 100 µM | ACHN > 100 µM | LXFL 529 > 100 µM | UO-31 > 100 µM | LOX IMVI > 100 µM

CCN(C(=O)N[C@H](C(=O)N[C@@H](C)C(=O)OC)C(C)C)c1ccccc1
inactive: SN12C 33 µM | Malme-3M 20 µM | T47D 29.8 µM | HOP-92 24 µM | A498 46.3 µM | RPMI-8226 33.4 µM | A549 > 100 µM | TK-10 35.7 µM | SNB-75 32.1 µM | M14 31 µM | SK-MEL-28 33.1 µM | KM12 39.6 µM | COLO 205 20 µM | OVCAR-3 51.2 µM | K562 24 µM | ACHN 45.2 µM | UO-31 43.3 µM | MDA-MB-231 > 100 µM | LOX IMVI > 100 µM
